“And” between values parts separate entries of the source, which are not always exact repeats. Equal values may be shown once.
The compounds below were run against Apoptosis regulator Bcl-2 (Homo sapiens, UniProt P10415) (assay: Bcl-2 TR-FRET Assay).
Procedure: Compounds disclosed herein were tested for blocking of Bcl-2 protein with its ligand in an assay based on Time-Resolved Fluorescence Resonance Energy Transfer (TR-FRET) methodology. Recombinant human 0.05 nM Bcl-2 protein was pre-incubated with a serial dilution of compounds disclosed herein (top final concentration is 1 uM or 0.1 uM or 0.02 uM or 0.01 uM, 10 points) at room temperature for 0.5 hour in an assay buffer containing 20 mM potassium phosphate buffer, pH 7.5, 50 mM NaCl. 1 mM EDTA, 0.05% Tween-20, 0.01% BSA. Then the FITC labeled Bak peptide Ac-GQVGRQLAIIGDK(FITC)INR-amide (0.5 nM) and MAb Anti 6His Tb cryptate Gold were added to plate and further incubated at room temperature for 1 hour. The TR-FRET signals (337 nm-520 nm-490 nm) were read on BMG PHERAstar FSX instrument. The inhibition percentage of Bcl-2 interaction with its ligand in presence of increasing concentrations of compounds was calculated based on the TR-FRET signals.

Chain of Apoptosis regulator Bcl-2 (P10415 whole entry): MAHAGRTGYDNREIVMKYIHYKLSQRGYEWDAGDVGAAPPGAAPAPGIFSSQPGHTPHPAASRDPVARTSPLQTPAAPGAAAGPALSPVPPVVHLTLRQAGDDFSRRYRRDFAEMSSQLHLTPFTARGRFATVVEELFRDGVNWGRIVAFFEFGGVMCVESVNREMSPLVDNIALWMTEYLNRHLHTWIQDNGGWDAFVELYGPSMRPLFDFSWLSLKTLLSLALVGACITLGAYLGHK

Compound | IC50
COc1cc(CN2CCN(C3CC4(CCN(c5ccc(C(=O)NS(=O)(=O)c6ccc(NC[C@H]7CC[C@](C)(O)CC7)c([N+](=O)[O-])c6)c(Oc6cnc7[nH]ccc7c6)c5)CC4)C3)[C@H](c3ccccc3C(C)C)C2)ccc1Cl [US20240376097, Example 276] | 0.48 nM
CC(C)c1ccccc1C1CN(CC(C)(C)C)CCN1C1CC2(CCN(c3ccc(C(=O)NS(=O)(=O)c4ccc(NC[C@H]5CC[C@](C)(O)CC5)c([N+](=O)[O-])c4)c(Oc4cnc5[nH]ccc5c4)c3)CC2)C1 (some centres undefined) [US20240376097, Example 12] | 0.73 nM
COc1ccc(CN2CCN(C3CC4(CCN(c5ccc(C(=O)NS(=O)(=O)c6ccc(NC[C@H]7CC[C@](C)(O)CC7)c([N+](=O)[O-])c6)c(Oc6cnc7[nH]ccc7c6)c5)CC4)C3)C(c3ccccc3C(C)C)C2)cc1 (some centres undefined) [US20240376097, Example 19] | 0.086 nM
COc1cc(CN2CCN(C3CC4(CCN(c5ccc(C(=O)NS(=O)(=O)c6ccc(NC[C@H]7CC[C@](C)(O)CC7)c([N+](=O)[O-])c6)c(Oc6cnc7[nH]ccc7c6)c5)CC4)C3)C(c3ccccc3C(C)C)C2)cc(C(F)(F)F)c1OC (some centres undefined) [US20240376097, Example 179] | 1.5 nM
CC(C)c1ccccc1[C@@H]1CN(Cc2ccc(OC3CC3)c(OC3CC3)c2)CCN1C1CC2(C1)CN(c1ccc(C(=O)NS(=O)(=O)c3ccc(NC[C@H]4CC[C@](C)(O)CC4)c([N+](=O)[O-])c3)c(Oc3cnc4[nH]cc(F)c4c3)c1)C2 [US20240376097, Example 363] | 0.34 nM and 0.4 nM
COc1cc(CN2CCN(C3CC4(CCN(c5ccc(C(=O)NS(=O)(=O)c6ccc(NC[C@H]7CC[C@](C)(O)CC7)c([N+](=O)[O-])c6)c(Oc6cnc7[nH]ccc7c6)c5)CC4)C3)C(c3ccccc3C(C)C)C2)cc(OC)c1 (some centres undefined) [US20240376097, Example 49] | 0.2 nM
COc1cc(CN2CCN(C3CC4(CCN(c5ccc(C(=O)NS(=O)(=O)c6ccc(NC[C@H]7CC[C@](C)(O)CC7)c([N+](=O)[O-])c6)c(Oc6cnc7[nH]cc(F)c7c6)c5)CC4)C3)[C@H](c3ccccc3C(C)C)C2)cc(C)c1OC [US20240376097, Example 210] | 0.33 nM
COc1cc(CN2CCN(C3CC4(CCN(c5ccc(C(=O)NS(=O)(=O)c6ccc(NC[C@H]7CC[C@](C)(O)CC7)c([N+](=O)[O-])c6)c(Oc6cnc7[nH]cc(F)c7c6)c5)CC4)C3)[C@H](c3ccccc3C(C)C)C2)ccc1Cl [US20240376097, Example 278] | 0.6 nM
COCCN1CCN(C2CC3(CCN(c4ccc(C(=O)NS(=O)(=O)c5ccc(NC[C@H]6CC[C@](C)(O)CC6)c([N+](=O)[O-])c5)c(Oc5cnc6[nH]ccc6c5)c4)CC3)C2)C(c2ccccc2C(C)C)C1 (some centres undefined) [US20240376097, Example 13] | 0.011 nM
